Test results reported in US9242987B2, “Heterocyclyl pyrazolopyrimidine analogues as JAK inhibitors” (Cellzome Limited, priority 2009, dated 2016).

What was measured:
JAK3 = target: T1, JAK3 (Homo sapiens, UniProt P52333); test: Kinobeads assay, JAK3; type: binding; settings: mixed Molt4/Ramos cell lysate, dot blot detection
T1 construct: endogenous in cells; host or cells: Mixed Molt4/Ramos lysate (1:2)
T1 sequence (P52333 1-1124): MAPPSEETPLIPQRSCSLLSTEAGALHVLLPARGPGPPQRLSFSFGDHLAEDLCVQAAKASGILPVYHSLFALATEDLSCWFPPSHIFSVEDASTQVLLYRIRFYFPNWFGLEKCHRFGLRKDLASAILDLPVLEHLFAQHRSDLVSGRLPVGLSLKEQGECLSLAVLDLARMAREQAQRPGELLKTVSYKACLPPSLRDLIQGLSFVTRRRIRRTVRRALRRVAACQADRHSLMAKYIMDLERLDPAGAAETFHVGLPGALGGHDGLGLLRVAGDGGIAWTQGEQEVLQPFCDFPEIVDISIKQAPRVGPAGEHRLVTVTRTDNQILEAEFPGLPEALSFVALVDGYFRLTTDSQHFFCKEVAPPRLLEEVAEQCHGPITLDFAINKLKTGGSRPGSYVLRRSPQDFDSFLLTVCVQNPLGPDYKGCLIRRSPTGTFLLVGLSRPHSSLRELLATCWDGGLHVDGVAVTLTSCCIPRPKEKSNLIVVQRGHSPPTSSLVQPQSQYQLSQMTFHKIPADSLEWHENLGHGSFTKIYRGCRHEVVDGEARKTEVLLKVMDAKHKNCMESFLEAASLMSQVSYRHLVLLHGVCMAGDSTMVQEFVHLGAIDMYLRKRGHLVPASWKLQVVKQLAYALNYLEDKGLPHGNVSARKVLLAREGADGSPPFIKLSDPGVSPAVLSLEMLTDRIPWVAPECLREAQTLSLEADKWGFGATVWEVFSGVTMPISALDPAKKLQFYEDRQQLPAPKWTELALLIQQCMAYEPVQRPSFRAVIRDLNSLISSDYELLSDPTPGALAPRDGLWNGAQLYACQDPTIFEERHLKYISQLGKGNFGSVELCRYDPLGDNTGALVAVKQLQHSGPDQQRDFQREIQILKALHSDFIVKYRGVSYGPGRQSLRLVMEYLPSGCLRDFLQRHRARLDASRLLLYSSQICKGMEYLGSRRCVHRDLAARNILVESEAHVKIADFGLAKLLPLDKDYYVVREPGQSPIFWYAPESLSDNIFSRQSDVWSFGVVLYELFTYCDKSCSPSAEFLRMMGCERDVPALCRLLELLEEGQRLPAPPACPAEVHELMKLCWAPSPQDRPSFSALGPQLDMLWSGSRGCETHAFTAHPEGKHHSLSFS
Summary of the method: (§1)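 Competition pulldown: compound dilution series incubated 3 h in cold room with immobilized aminopyrido-pyrimidine beads and mixed Molt4/Ramos lysate (1:2, 10 mg/mL protein) in DP buffer pH 7.4 with NP40. Bead-bound JAK2/JAK3 eluted, quantified by antibody dot blot with infrared detection; IC50 from dose-response curves.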

JAK2 = target: T2, JAK2 (Homo sapiens, UniProt O60674); test: Kinobeads assay, JAK2; type: binding; settings: mixed Molt4/Ramos cell lysate, dot blot detection
T2 construct: endogenous in cells; host or cells: Mixed Molt4/Ramos lysate (1:2)
T2 sequence (O60674 whole entry): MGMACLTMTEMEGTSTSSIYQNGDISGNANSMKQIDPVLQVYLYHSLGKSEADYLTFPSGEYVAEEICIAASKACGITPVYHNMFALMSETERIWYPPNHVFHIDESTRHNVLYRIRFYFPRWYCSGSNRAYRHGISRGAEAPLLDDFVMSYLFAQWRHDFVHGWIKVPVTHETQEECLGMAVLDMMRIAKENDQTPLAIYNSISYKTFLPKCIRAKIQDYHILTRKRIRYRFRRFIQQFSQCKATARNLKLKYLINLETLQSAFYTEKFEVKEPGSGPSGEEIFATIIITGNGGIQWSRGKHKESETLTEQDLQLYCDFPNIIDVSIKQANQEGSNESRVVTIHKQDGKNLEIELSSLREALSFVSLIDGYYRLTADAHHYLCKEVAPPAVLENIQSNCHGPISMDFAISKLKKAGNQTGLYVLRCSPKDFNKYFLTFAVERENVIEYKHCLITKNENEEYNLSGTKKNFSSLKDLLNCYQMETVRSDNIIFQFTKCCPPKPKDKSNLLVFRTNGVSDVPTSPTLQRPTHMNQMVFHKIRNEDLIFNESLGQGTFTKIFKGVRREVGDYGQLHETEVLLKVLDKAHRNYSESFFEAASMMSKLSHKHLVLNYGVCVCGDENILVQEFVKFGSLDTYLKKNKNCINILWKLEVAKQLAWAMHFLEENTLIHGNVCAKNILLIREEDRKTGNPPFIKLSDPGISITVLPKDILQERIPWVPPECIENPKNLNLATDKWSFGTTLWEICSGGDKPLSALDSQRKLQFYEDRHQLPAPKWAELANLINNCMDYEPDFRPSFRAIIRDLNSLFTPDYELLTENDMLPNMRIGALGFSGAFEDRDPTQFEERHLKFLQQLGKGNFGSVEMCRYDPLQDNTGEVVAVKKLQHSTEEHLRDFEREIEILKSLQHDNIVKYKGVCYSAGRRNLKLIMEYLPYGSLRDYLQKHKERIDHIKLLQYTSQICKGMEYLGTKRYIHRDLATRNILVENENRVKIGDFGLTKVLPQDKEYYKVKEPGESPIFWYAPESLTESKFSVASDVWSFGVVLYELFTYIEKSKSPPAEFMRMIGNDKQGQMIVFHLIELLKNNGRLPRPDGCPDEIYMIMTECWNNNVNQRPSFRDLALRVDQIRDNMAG
Summary of the method: as §1

| SMILES | IC50 (JAK3) [nM] | IC50 (JAK2) [nM] |
| --- | --- | --- |
| Cn1cc(Nc2ncc3cnn(Cc4c(F)ccc(N5CCNCC5)c4F)c3n2)cn1 [Example 301, 1-(2,6-Difluoro-3-(piperazin-1-yl)benzyl)-N-(1-methyl-1H-pyrazol-4-yl)-1H-pyrazolo[3,4-d]pyrimidin-6-amine] | < 100 | 1000 to 10000 |
| O=C1CNCCN1c1ccc(F)c(Cn2ncc3cnc(Nc4cnn(CCO)c4)nc32)c1F [Example 302, 1-(2,4-Difluoro-3-((6-((1-(2-hydroxyethyl)-1H-pyrazol-4-yl)amino)-1H-pyrazolo[3,4-d]pyrimidin-1-yl)methyl)phenyl)piperazin-2-one] | < 100 | 1000 to 10000 |
| OCCn1cc(Nc2ncc3cnn(Cc4c(F)ccc(N5CCNCC5)c4F)c3n2)cn1 [Example 304, 2-(4-((1-(2,6-Difluoro-3-(piperazin-1-yl)benzyl)-1H-pyrazolo[3,4-d]pyrimidin-6-yl)amino)-1H-pyrazol-1-yl)ethanol] | < 100 | 1000 to 10000 |
| Fc1ccccc1Cn1ncc2cnc(Nc3cnn(CC4CCNC4)c3)nc21 (stereo not shown) [Example 306, 1-(2-Fluorobenzyl)-N-(1-(pyrrolidin-3-ylmethyl)-1H-pyrazol-4-yl)-1H-pyrazolo[3,4-d]pyrimidin-6-amine] | < 100 | 100 to 1000 |
| OCCn1cc(Nc2ncc3cnn(Cc4cccc(F)n4)c3n2)cn1 [Example 314, 2-(4-((1-((6-Fluoropyridin-2-yl)methyl)-1H-pyrazolo[3,4-d]pyrimidin-6-yl)amino)-1H-pyrazol-1-yl)ethanol] | < 100 | 100 to 1000 |
